Consider 2 compounds from patent US8933130B2, “Treatment of vasomotor symptoms with selective estrogen receptor modulators” (Radius Health, Inc., priority 2006, dated 2015).

In data set [1] the test system is morphine-addicted ovariectomized rats. In words: Rodent model of hot flashes: tail skin temperature change after naloxone in morphine-addicted ovariectomized rats. Particulars: for Mean Tail Skin Temp.: tail skin temperature change after naloxone, ovariectomized rats, vehicle 5.6° C. The format is in vivo, rat. On the procedure: The SERM, (R)-6-{2-{Ethyl[4-(2-ethylaminoethyl)benzyl]amino}-4-methoxyphenyl}-5,6,7,8-tetrahydronaphthalen-2-ol (“SERM A”), was evaluated for its ability to modulate vasomotor activity in a rodent model of hot flashes. (Merchenthaler, Maturitas, 1998 30:307-316). Briefly, ovariectomized adult rats were implanted with slow release morphine sulfate pellets on days 5 and 6 post-ovariectomy. Beginning at 4 days post-ovariectomy, once-daily treatment was initiated with a positive control, ethynyl estradiol (0.3 mg/kg), SERM A (1 and 10 mg/kg) or vehicle (95% corn oil, 5% DMSO by volume), delivered by subcutaneous injection. Treatment with the test agents was continued daily until the end of the study. On day 10, probes capable of continuously monitoring temperature were applied to the tail skin surface of the treated rats. The rats were then treated with naloxone, a morphine antagonist, and the change in skin temperature recorded for a period of 60 minutes.

Data set [2] concerns 19-day old Sprague-Dawley rats (uteri). Particulars: rat, in vivo. On the procedure: 19-day old Sprague-Dawley rats were treated with either vehicle (95% corn oil/5% DMSO), estradiol (0.01 mg/kg), raloxifene (10 mg/kg), tamoxifen (1 mg/kg) or SERM A (100, 30, 10, 3, 1, or 0.3 mg/kg). The rats were dosed once daily by subcutaneous injection for three consecutive days. 24 hours after the last dose, the rats were euthanized, uteri were harvested and their wet weight recorded.

Data set [3] has the same test system. The data set can be described thus: Antagonism of estradiol-mediated uterine stimulation: uterine wet weight in 19-day old rats. Type of data set: in vivo, rat. Particulars: SERM A 10, 3, 1, 0.3, 0.1, 0.03, 0.01 mg/kg combined with estradiol 0.01 mg/kg, s.c. once daily for three days; FIG. 3. Here is the method: 19-day old Sprague-Dawley rats were treated with either vehicle (95% corn oil/5% DMSO), estradiol (0.01 mg/kg), or a combination of estradiol (0.01 mg/kg) and SERM A (10, 3, 1, 0.3, 0.1, 0.03, 0.01 mg/kg). The rats were dosed once daily by subcutaneous injection for three consecutive days. 24 hours after the last dose, the rats were euthanized, uteri were harvested and their wet weight recorded.

Regarding `CCNCCc1ccc(CN(CC)c2cc(OC)ccc2[C@@H]2CCc3cc(O)ccc3C2)cc1` [SERM A, (R)-6-{2-{Ethyl[4-(2-ethylaminoethyl)benzyl]amino}-4-methoxyphenyl}-5,6,7,8-tetrahydronaphthalen-2-ol], the “increase in skin temperature after naloxone treatment, compared to vehicle” value in data set [1] (0.1 and 0.01 mg/kg) is recorded as “did not significantly reduce the increase in skin temperature”; in data set [1] (1 or 10 mg/kg s.c. once daily) it was “significantly reduced the increase in skin temperature”. Besides, the “elevation of tail skin temperature associated with morphine addiction withdrawal” value in data set [1] (morphine-addicted ovariectomized rats, FIG. 1) was “suppressing the elevation of tail skin temperature”. The “activity on reducing tail skin temperature increase, compared with positive control ethynyl estradiol” value in data set [1] (statistical analysis, SERM A 1 and 10 mg/kg vs ethynyl estradiol 0.3 mg/kg) is “no significant difference”. The “Mean Tail Skin Temp.” value in data set [1] (1 mg/kg once daily s.c.) is 2.1 °C; in data set [1] (10 mg/kg once daily s.c.) it was 2.0 °C. The “uterine stimulation at doses effective at modulating vasomotor response” value in data set [2] is reported as “lack of uterine stimulation”. Moreover, in data set [3], the “estradiol-mediated increase in uterine weight” value is recorded as “decreased the estradiol-mediated increase in a dosage dependent manner”.

With `C#C[C@]1(O)CC[C@H]2[C@@H]3CCc4cc(O)ccc4[C@H]3CC[C@@]21C` [Ethynyl estradiol, ethynyl estradiol, reference compound], in data set [1] (0.3 mg/kg s.c. once daily), the “increase in skin temperature after naloxone treatment, compared to vehicle” value is given as “significantly reduced the increase in skin temperature”. In addition, in data set [1] (0.3 mg/kg once daily s.c.), the “Mean Tail Skin Temp.” value was found to be 1.2 °C.
